{"source": "paper PMC5803267", "about": "“A small molecule inhibitor of Rheb selectively targets mTORC1 signaling” (Nature Communications, 2018)", "key": {"Rap1": {"system": "Rap1", "assay": "Rap1 in vitro activity assay (GST-RalGDS-RBD pulldown from lysates)", "format": "biochemical, human", "settings": "lysates loaded with GDP or GTPγS, compound 30 min", "method": "(§1) MCF-7 cells were serum-starved for 16 h and treated with compound for 90 min before cell lysis and Western blot analysis. For insulin-stimulated cells, 100 nM insulin was added 30 min before cell lysis. For EGF-stimulated cells, 100 ng mL^−1 EGF was added 10 min before cell lysis. c Rap1 activity was detected in lysates loaded in vitro with either GDP or GTPγS and treated with NR1 at the indicated concentrations. This was followed by a subsequent pulldown of GST-RalGDS-RBD. Bound Rap1 was detected by Western blot. d Evaluation of NR1 in a LAM patient-derived cell line (TRI102) under replete and serum-starved conditions. For replete conditions, TRI102 cells were treated for 90 min with compound in DMEM + 10% FBS. For serum-starved conditions, TRI102 cells were serum-starved 16 h and then treated for 90 min with compound prior to cell lysis and Western blot analysis. e HEK293 cells co-transfected with the indicated mTOR constructs and HA-GST-S6K1 were starved of amino acids or treated with NR1. To assess mTORC1 activity, an HA IP was performed and Western blots probed for ^T389pS6K1. f Chronic treatment of PC3 cells with NR1 to evaluate the inhibition of mTORC1 (using ^T389pS6K1) versus mTORC2 (using ^S473pAKT). PC3 cells were treated with compound under replete conditions for 24 h prior to cell lysis and Western blot analysis. […]"}, "[1]": {"system": "T202/Y204pERK1/2 (Ras/ERK pathway) in MCF-7 cells", "assay": "EGF-induced T202/Y204pERK1/2 Western blot in MCF-7 cells", "format": "cell-based, human", "settings": "MCF-7 serum-starved 16 h, compound 90 min, 100 ng mL^−1 EGF", "method": "as §1"}, "[2]": {"system": "S473pAKT (mTORC2) in PC3 cells", "assay": "Chronic treatment of PC3 cells, S473pAKT Western blot", "format": "cell-based, human", "method": "MCF-7 cells were serum-starved for 16 h and treated with compound for 90 min before cell lysis and Western blot analysis. For insulin-stimulated cells, 100 nM insulin was added 30 min before cell lysis. For EGF-stimulated cells, 100 ng mL^−1 EGF was added 10 min before cell lysis. c Rap1 activity was detected in lysates loaded in vitro with either GDP or GTPγS and treated with NR1 at the indicated concentrations. This was followed by a subsequent pulldown of GST-RalGDS-RBD. Bound Rap1 was detected by Western blot. d Evaluation of NR1 in a LAM patient-derived cell line (TRI102) under replete and serum-starved conditions. For replete conditions, TRI102 cells were treated for 90 min with compound in DMEM + 10% FBS. For serum-starved conditions, TRI102 cells were serum-starved 16 h and then treated for 90 min with compound prior to cell lysis and Western blot analysis. e HEK293 cells co-transfected with the indicated mTOR constructs and HA-GST-S6K1 were starved of amino acids or treated with NR1. To assess mTORC1 activity, an HA IP was performed and Western blots probed for ^T389pS6K1. f Chronic treatment of PC3 cells with NR1 to evaluate the inhibition of mTORC1 (using ^T389pS6K1) versus mTORC2 (using ^S473pAKT). PC3 cells were treated with compound under replete conditions for 24 h prior to cell lysis and Western blot analysis.\nAccordingly, a hallmark of a selective mTORC1 inhibitor such as NR1 would be the lack of mTORC2 inhibition irrespective of the duration of treatment. PC3 cells are sensitive to mTORC2 inhibition with long-term rapamycin treatment. Indeed, upon treatment with rapamycin for 24 h, both ^T389pS6K1 and ^S473pAKT were lowered, indicating inhibitory effects on both mTORC1 and mTORC2, respectively.\nFor Western-based signaling assays, cells were treated for either 90 min or 2–24 h as indicated before lysis, normalization, and Western analysis. Cells were lysed in Triton lysis buffer: 1% Triton X-100, 50 mM HEPES pH 7.4, 100 mM NaCl, 2 mM EDTA, 10 mM β-glycerophosphate, 10 mM Na-pyrophosphate, protease inhibitor."}, "Aqueous solubility": {"assay": "Aqueous solubility", "format": "physicochemical", "settings": "result in words"}, "[3]": {"target": "T1, Rheb-dependent mTORC1 kinase activity (Homo sapiens, UniProt Q15382)", "T1 construct": "using full-length Rheb and mTORC1 purified from mammalian cells via a Flag-Raptor handle; made in house; host or cells: HA-GST-Rheb: Freestyle 293-F cells transfected with pRK5-HA-GST-Rheb; mTORC1: HEK-293E cells stably expressing FLAG-Raptor", "T1 sequence (Q15382 1-181 limits assumed)": "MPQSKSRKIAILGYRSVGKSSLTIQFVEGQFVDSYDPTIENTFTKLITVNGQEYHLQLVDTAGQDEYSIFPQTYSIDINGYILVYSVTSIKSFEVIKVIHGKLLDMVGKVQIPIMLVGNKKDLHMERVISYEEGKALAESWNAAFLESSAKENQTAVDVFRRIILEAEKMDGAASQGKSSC", "assay": "Rheb-dependent mTORC1 in vitro kinase assay (Rheb-IVK)", "format": "biochemical"}}, "note": "Entries after “also recorded” stand apart in the source; their conditions may differ."}
{"smiles": "CN(C)C(=O)c1ccc(Cn2c(C(=O)O)cc3c(Br)cc(Sc4ccc(Cl)c(Cl)c4)cc32)cc1", "note": "[NR1, 4-bromo-6-(3,4-dichlorophenylthio)-1-(4-(dimethylcarbamoyl)benzyl)-1H-indole-2-carboxylic acid]", "values": [{"measurement": "effect on activity of Rap1 in vitro", "setting": "Rap1", "value": "no impact on the activity of Rap1; also recorded: did not affect the activity of Rap1"}, {"measurement": "EGF-induced phosphorylation of T202/Y204pERK1/2", "setting": "[1]", "value": "did not inhibit"}, {"measurement": "S473pAKT after 24 h treatment", "setting": "[2]; PC3, replete, 24 h, NR1 30 µM, rapamycin 100 nM", "value": "no inhibition"}, {"measurement": "pAkt over time course", "setting": "[2]; PC3, time points 2 h through 24 h", "value": "activates pAkt"}, {"measurement": "aqueous solubility", "setting": "Aqueous solubility", "value": "low aqueous solubility"}, {"measurement": "IC50", "setting": "[3]", "value": 2100, "unit": "nM"}]}
